Consider 9 substances from patent US9850278B2, “Synthetic anti-inflammatory peptides and use thereof” (CARMEL-HAIFA UNIVERSITY ECONOMIC CORP., priority 2013, dated 2017).

“Also recorded” adds a separate entry of the source.

In one assay the test system is IL-10. Nature of the assay: IL-10 secretion by U937-derived human macrophages, supernatant ELISA. The settings on record: for IL-10 secretion, effect of peptide: significant if ±30% of control; for IL-10 secretion, effect of peptide (Example 2, FIG. 4A): peptide 1-1000 μM 24 hrs, then LPS 100 ng/ml 24 hours, FKE effect at low concentrations (1-10 μM), others compared with FKE. Type of assay: cell-based. As to the method: (§1) U937 monocytic cells were cultured in 1 ml culture media (RPMI 1640, Biological industries, Beit Haemek), supplemented with 10% Fetal Calf Serum (FCS), 1% pen strep (PS) and 0.04% β-mercaptoethanol) and seeded in 24 well plates (250,000 cells/well). The monocytes underwent differentiation to macrophages with PMA (50 ng/ml) for 48 Hours in a humidified atmosphere (7.5% CO2 at 37° C.). Then the cells were washed using preheated (37° C.) culture medium and synthetic peptides (FKE, SEQ ID NO: 1, or FKD, SEQ ID NO: 3, 0.1-1000 μM) were added to the cells for 24-48 hours. After 24 hours, untreated or peptide-treated cells were activated with lipopolysaccharide (LPS-stimulated, 100 ng/ml for 24 hours). After the indicated incubations, cell free supernatants were collected and their content of IL-10, TGF-β and IL-6 was determined by standard ELISA.
(§2) The results are presented in FIGS. 1-3 and summarized in Table 1 below (effect considered significant if ±30% of control):
(§3) U937 monocytic cells were cultured and underwent differentiation to macrophages as described above in Example 1. The cells were then incubated for 24 hrs in the presence of synthetic peptides, at 1-1000 μM: FKE (SEQ ID NO: 1), FKECHLA (SEQ ID NO: 21), FKECH (SEQ ID NO: 4), EKF or YKE (SEQ ID NO: 2). Control cells were left untreated. After 24 hours, untreated or peptide-treated cells were activated with lipopolysaccharide (LPS, 100 ng/ml for 24 hours). Following activation with LPS, cell free supernatants were collected and their content of IL-10, TGF-β, IL-6 and TNF-α was determined by standard ELISA.
On the technique in general: An ELISA detects its analyte on a solid surface through an enzyme-linked reagent.

The subject of a further assay is TGF-β. Nature of the assay: TGF-β secretion by U937-derived human macrophages, supernatant ELISA. In kind it is cell-based. The conditions noted are these: for TGF-β secretion, effect of peptide (Example 2, FIG. 4B): peptide 1-1000 μM 24 hrs, then LPS 100 ng/ml 24 hours, FKE effect at low concentrations (1-10 μM), others compared with FKE. As to the method:
as §1, §2, §3

In another assay the test system is IL-6. Nature of the assay: IL-6 secretion by U937-derived human macrophages, supernatant ELISA. In kind it is cell-based. The settings on record: for IL-6 secretion, effect of peptide (Example 2, FIG. 4C): peptide 1-1000 μM 24 hrs, then LPS 100 ng/ml 24 hours, FKE effect at low concentrations (1-10 μM), others compared with FKE. As to the method: as §1, §2, §3

The test system of a further assay is TNF-α. Nature of the assay: TNF-α secretion by LPS-activated U937-derived human macrophages, supernatant ELISA. In kind it is cell-based. The conditions noted are these: peptide 1-1000 μM 24 hrs, then LPS 100 ng/ml 24 hours; FKE effect at low concentrations (1-10 μM); others compared with FKE. As to the method: as §3
For assay [1], the system named is bovine mammary gland epithelial lined cells (BMEC). The conditions noted are these: reported by Komine et al.; BMEC named for the bovine peptides; cited from earlier work.
The mark [2] stands for this setting: LPS-stimulated macrophages (peptide 24 hrs, then LPS 100 ng/ml 24 hrs).
Setting [3] is: peptide at low concentrations (1-10 μM).
[4] abbreviates: Non-stimulated, 24 hrs, peptide at 1000 μM.
Where [5] appears, read: Non-stimulated, 48 hrs, peptide 0.1-1000 μM.

Turning to Phe-Lys-Glu (FKE), in the assay on IL-10 (setting [2]), the “IL-10 secretion, effect of peptide” value is “increased”. Also, the “IL-10 secretion, peptide concentration of maximal effect” value was 1 µM in the assay with IL-10 (LPS-stimulated, 24 hrs); 10 µM in the assay with IL-10 (Non-stimulated, 24 hrs); 0.1 µM in the assay with IL-10 (Non-stimulated, 48 hrs). In addition, in the assay with IL-10, the “IL-10 secretion, effect of peptide (Example 2, FIG. 4A)” value (from here on “IL-10 secretion … (Example 2, FIG. 4A)”) is given as “induces”. In addition, the “IL-10 secretion, effect of peptide (Example 1)” value with IL-10 (setting [3]) is on record as “induces”. For the same substance, the “TGF-β secretion, peptide concentration of maximal effect” value came out at 100 µM in the assay on TGF-β (LPS-stimulated, 24 hrs) and 10 µM in the assay on TGF-β (Non-stimulated, 48 hrs). The “TGF-β secretion, effect of peptide” value in the assay on TGF-β (Non-stimulated macrophages, 24 hrs incubation, peptide 0.1-1000 μM, significant if ±30% of control) is given as “No effect”. Also, in the assay with TGF-β, the “TGF-β secretion, effect of peptide (Example 2, FIG. 4B)” value (shortened to “TGF-β secretion … (Example 2, FIG. 4B)”) was “inhibits”. In addition, the “TGF-β secretion, effect of peptide (Example 1)” value with TGF-β (setting [3]) was “inhibits”. For the same substance, the “IL-6 secretion, effect of peptide” value in the assay on IL-6 (setting [2]) was “No Increase”; with IL-6 (setting [4]), “Increase (at”; with IL-6 (setting [5]), “Increase (starts”. For the same substance, the “IL-6 secretion, peptide concentration at which increase starts” value in the assay with IL-6 (Non-stimulated, 48 hrs) is on record as “at 0.1 μM)”. Further, in the assay on IL-6, the “IL-6 secretion, effect of peptide (Example 2, FIG. 4C)” value (from here on “IL-6 secretion … (Example 2, FIG. 4C)”) is “inhibits”. Besides, the “TNF-α secretion, effect of peptide (Example 2, FIG. 4D)” value (“TNF-α secretion, effect of peptide” below) with TNF-α is given as “inhibits”.

Take FKECH: the “IL-10 secretion … (Example 2, FIG. 4A)” value in the assay with IL-10 is reported as “less active than FKE”. The “TGF-β secretion … (Example 2, FIG. 4B)” value in the assay on TGF-β was “less active than FKE”. Also, the “IL-6 secretion … (Example 2, FIG. 4C)” value in the assay on IL-6 is recorded as “less active than FKE”. The “TNF-α secretion, effect of peptide” value with TNF-α was “pronounced activity in inhibiting”.

For the substance “phenylalanine-lysine-aspartic acid [FKD]”, the “IL-10 secretion, effect of peptide” value is “decreased; also recorded: Decrease (max at” with IL-10 (setting [2]) and “Decrease (max at” in the assay with IL-10 (Non-stimulated macrophages, 24 hrs incubation, peptide 0.1-1000 μM). The “IL-10 secretion, peptide concentration of maximal effect” value in the assay on IL-10 (LPS-stimulated, 24 hrs) was determined as 100 µM; in the assay on IL-10 (Non-stimulated, 24 hrs) it was 1 µM; in the assay on IL-10 (Non-stimulated, 48 hrs), 1000 µM. In addition, the “TGF-β secretion, peptide concentration of maximal effect” value with TGF-β (LPS-stimulated, 24 hrs) was found to be 10 µM; in the assay with TGF-β (Non-stimulated, 24 hrs) it was 1 µM; with TGF-β (Non-stimulated, 48 hrs), 10 µM. Besides, the “IL-6 secretion, effect of peptide” value in the assay with IL-6 (setting [2]) is reported as “increased; also recorded: Increase (all conc.)”; in the assay with IL-6 (setting [4]) it was “Increase (at”; in the assay on IL-6 (setting [5]), “Increase”. The “IL-6 secretion, peptide concentration at which increase starts” value in the assay on IL-6 (Non-stimulated, 48 hrs) is reported as “at 0.1 μM)”. Also, the “IL-6 secretion increase relative to FKE” value in the assay on IL-6 (Non-stimulated, 48 hrs, fold of FKE) amounted to 4 fold.

Take Glu-Lys-Phe [EKF]: in the assay on IL-10, the “IL-10 secretion … (Example 2, FIG. 4A)” value is reported as “did not reproduce these effects”. In addition, the “TGF-β secretion … (Example 2, FIG. 4B)” value with TGF-β is “did not reproduce these effects”. Also, the “IL-6 secretion … (Example 2, FIG. 4C)” value in the assay with IL-6 is “did not reproduce these effects”. Moreover, the “TNF-α secretion, effect of peptide” value in the assay on TNF-α is recorded as “moderate inhibition”.

Regarding “GQRDLFKDSAL [bovine counterpart of pep4, Komine et al]”, in assay [1], the “induction of pro-inflammatory cytokines and chemokines (TNF-α, IL-6, IL-8 and MCP-1)” value (“induction … (TNF-α, IL-6, IL-8 and MCP-1)” below) is “induced”.

For the substance “FKECHLA [known bovine lactoferrin-derived synthetic peptide, excluded from Formula I]”, in the assay with IL-6, the “IL-6 secretion … (Example 2, FIG. 4C)” value is “reproduced the effects”. In the assay with TNF-α, the “TNF-α secretion, effect of peptide” value is listed as “reproduced the effects”. For the same substance, the “induction … (TNF-α, IL-6, IL-8 and MCP-1)” value in assay [1] was “inactive”.

Consider “Tyr-Lys-Glu (YKE) [synthetic tripeptide, from the corresponding position in murine lactoferrin]”, for which the “IL-10 secretion … (Example 2, FIG. 4A)” value in the assay with IL-10 is “did not affect”. Also, the “IL-6 secretion … (Example 2, FIG. 4C)” value in the assay with IL-6 was “reproduced these effects”. Further, the “TNF-α secretion, effect of peptide” value in the assay with TNF-α is on record as “better inhibition”.

As to “FKDCHLA [positions 243-249 of human lactoferrin, Komine et al]”, the “induction … (TNF-α, IL-6, IL-8 and MCP-1)” value in assay [1] is given as “induction”.

Turning to “GQKDLLFKDSAI [positions 295-307 of human lactoferrin, Komine et al]”, in assay [1], the “induction … (TNF-α, IL-6, IL-8 and MCP-1)” value was “induction”.
